Entries after “also recorded” stand apart in the source; their conditions may differ. Like-named read-outs stand apart in the source and are kept apart here.

Data set [1] deals with U87EGFRvIII cells. Description: Growth curves under erlotinib. It counts as cell-based, human. The settings on record: 1 uM erlotinib. The source says: U87/EGFRV3 cells were provided by Prof.
For data set [2], the system named is GBM39 cells. Description: SCBC multiplex metabolite/protein assay before and after erlotinib. The settings on record: 24 h erlotinib treatment (1 μM). It counts as cell-based, human.
Description: Using a SCBC as shown in FIGS. 1A and 1B and further disclosed herein, simultaneous quantification of a panel of metabolites and proteins, including cAMP, cGMP, glucose uptake, glutathione along with phosphofructokinase (PFK), phospho-acetyl-CoA Caraboxylase (pACAC), phospho-liver kinase B1 (pLKB1), phosphoinositide-dependent kinase 1 (PDK), hexokinase 2 (HK2), pyruvate kinase M2 (PKM2), and phospho-carbohydrate kinase family protein (pPFKB2) was performed in single cells separated from the GBM39 neurosphere tumor model. […] For the drug treatment, 1 million cells were suspended in 10 mL of media and were cultured for several days to form neurospheres. […] The cells were then treated for designated periods of time and processed for tests. Cell loading. The upper channels were briefly rinsed with cell culture medium to minimize perturbation to the cells. […] The suspension was loaded into the SCBC device and compartmentalized into 310 isolated microchambers with single cell or defined number of cells in each chamber. The cell loading step results in a random distribution of different numbers of cells in different chambers, the statistical distribution can be adjusted by varying the loading concentration and the flow speed. […] The extra cells were washed away by 1×PBST. The images of each chamber were recorded using a microscope-CCD camera and used for subsequent cell counting.
The subject of data set [3] is U87EGFRvIII cells. As to the method:
A multiplex assay incorporating the glutamine uptake assay according to embodiments of the present invention was performed using a SCBC platform in U87 human glioblastoma cells having amplified epidermal growth factor receptor (EGFR) expression.
U87/EGFRV3 cells were provided by Prof. Paul S. Mischel (UCSD, San Diego, U.S.A.) and cultured in Dulbecco's modified eagle media (DMEM, Gibco, ThermoFisher Scientific, Grand Island, N.Y., U.S.A.) supplemented with 10% of fetal bovine serum (Thermo Fisher Scientific) and 100 U/mL of penicillin and streptomycin in a humidified 5% CO2 (v/v) incubator, at 37° C.
In order to better understand the integrated single cell metabolic/proteomic data, a simplified semi-quantitative metabolic model (FIG. 16A) was developed. The focus of this model includes the glycolysis pathway and the TCA cycle, which cover the major contributors of cellular energy generation. Glucose is used by cells for many tasks, but by combining the measurement of glucose uptake with measurements of those enzymes that process glucose for energy production and lactate production, an estimation may be made of the contributions of glucose to glycolysis and to the TCA cycle (FIGS. 16A-16B). It assumed that each glucose molecule consumed yields 8 ATP equivalents through glycolysis, and an additional 22 ATP equivalents through the TCA cycle. The numbers here are not the actual ATP production number, but an energy-currency conversion. The glycolysis part generates 2 ATP and 2 NADH molecules per glucose, and each NADH is ultimately worth 3 ATP, thus making 8 ATP total. […] For glutamine that is taken up by the cell, there are multiple possible outcomes. It can enter the TCA cycle to generate energy, or it can be exported in exchange for other amino acids, or participate in biosynthesis of glutathione and proteins, as examples. On this basis, glutamine may be considered as a special currency, which can either be used directly by the cell to produce energy, or in exchange of other necessary nutrients or to perform some crucial metabolic function. From a global point of view, the active uptake of glutamine reflects a metabolic demand from the cell, regardless how it is used. In order to have an integrated picture of the potential energy production from glutamine and glucose, we simply assume that all glutamine participates in the TCA cycle, so that each glutamine molecule affords 8.5 ATP equivalents. To calculate the energy production for each pathway, glucose and glutamine uptake levels as well as related metabolic enzyme levels are normalized into the range between 0 and 1 across all samples. Subsequently, the normalized analyte levels (a) were used and a steady-state approximation (FIG. 16E) to calculate the energy production rate for each step (FIG. 16B). Several energy indices were defined based on the model. The energy production index (EPI) assesses the total energy production rate through glucose and glutamine metabolism, while the energy source index (ESI) measures the energy contribution ratio between glucose and glutamine. The glycolysis index (GI) weighs the contribution of glycolysis in total glucose-based energy production, and depends upon glucose uptake, as well as the levels of phosphofructokinase (PFK) and pyruvate kinase isozyme M2 (PKM2). In addition to the energy indices, we use the cAMP and cGMP levels to define an energy frustration index (EFI), and use the GSH level to define a redox frustration index (RFI).

Data set [4] has as its target T1, SLC1A5 neutral amino acid transporter (Homo sapiens, UniProt Q15758).
T1 construct: Compound 3 was further analyzed for uptake in U87 cells; endogenous in cells; host or cells: U87 (U87/EGFRV3) glioblastoma cells
T1 sequence (Q15758 1-541): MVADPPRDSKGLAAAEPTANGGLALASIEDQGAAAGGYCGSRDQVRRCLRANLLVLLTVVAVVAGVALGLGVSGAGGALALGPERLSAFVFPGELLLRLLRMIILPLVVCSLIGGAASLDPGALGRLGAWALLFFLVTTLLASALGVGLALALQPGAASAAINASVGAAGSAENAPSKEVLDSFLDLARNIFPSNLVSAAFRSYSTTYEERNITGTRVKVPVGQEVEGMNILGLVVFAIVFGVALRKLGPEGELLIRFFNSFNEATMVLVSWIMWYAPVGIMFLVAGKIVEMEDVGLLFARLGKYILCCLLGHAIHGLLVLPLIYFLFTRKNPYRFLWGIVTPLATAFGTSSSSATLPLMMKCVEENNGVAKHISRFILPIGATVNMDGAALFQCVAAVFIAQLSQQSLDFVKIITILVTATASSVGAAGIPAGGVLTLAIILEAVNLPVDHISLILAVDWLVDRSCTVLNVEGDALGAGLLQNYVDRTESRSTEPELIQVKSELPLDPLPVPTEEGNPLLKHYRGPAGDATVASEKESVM
Put plainly: Uptake of Compound 3 with the SLC1A5 transporter inhibited (sodium free, siRNA). Particulars: U87 cells. The format is cell-based. The protocol: In some embodiments of the present invention, a method for measuring glutamine uptake in a cell includes incubating the cell with a glutamine analog, followed by lysis of the cell, and quantification of the amount of the glutamine analog in the cell. […] These 8 glutamine analogs (adamantane conjugates) were assayed for their ability to substitute for glutamine. […] As such, the Compound 3 Ad-Glutamine analog is a validated substitute for glutamine.

For data set [5], the system named is cell growth. Put plainly: Cell toxicity of Compound 3 Ad-Glutamine analog (cell numbers normalized to control). Particulars: indicated concentrations, FIG. 5F. The format is cell-based. The source says: FIG. 5F is a graph showing cell toxicity of the Compound 3-Ad-Glutamine analog at the indicated concentrations with cell numbers normalized to the control sample, according to embodiments of the present invention.

The test system of data set [6] is U87 cells. Put plainly: Glutamine kit assay (Abcam, ab83389), cells incubated with Compound 3. The format is cell-based, human. The settings on record: U87 cells alone vs incubated with Compound 3.
The test system of data set [7] is U87/EGFRV3 cells. Put plainly: Glutamine analog uptake (Cyclodextrin-Cy3 / Adamantane-BHQ2 FRET readout). The format is cell-based, human. Particulars: 1 mM analog, 20 min; with glutamine at 4° C. and 37° C., without glutamine at 37° C. As to the method: FIG. 5B is a graph of cell uptake experiments using the immunofluorescence assay depicted in FIG. 2C to assay Compounds 1-8 as shown in FIG. 5A in the presence of glutamine at 4° C. (left bars) and 37° C. (middle bars), and in the absence of glutamine at 37° C. (right bars), according to embodiments of the present invention.
U87/EGFRV3 single cells were resuspended in DMEM media or glutamine-free DMEM media (Thermo Fisher Scientific) with 1 mM of glutamine analog and incubated at 37° C. or 4° C. for 20 min. Subsequently, the cells were collected via centrifugation (500 g, 5 min) and washed with cold PBS for three times. Then, the cells were lysed using cell lysis buffer (Cell Signaling, Boston, Mass., U.S.A.). To quantify the analog uptake, the lysate was mixed with an Adamantane-BHQ2 solution (100 nM in water) incubated on the glass slide with surface hybridized Cyclodextrin-Cy3-DNA at room temperature for 1 hr. the glass slide was then washed and spin dried. The fluorescence signal on the glass slide was read out using an Axon GenePix 4400A scanner.

In data set [8] the test system is hexokinase. Put plainly: Coupled enzyme kinetics measurement (hexokinase/G6PDH, NADH absorption at 340 nm). It counts as biochemical. The source says: Enzymes and substrate solutions from a glucose assay kit (Sigma-Aldrich) were used without purification. […] First, hexokinase converts glucose into glucose-6-phosphate, which consumes one equivalent of ATP. Then, the glucose-6-phosphate is converted to gluconate-6-phosphate by glucose-6-phosphate dehydrogenase (G6PDH). At the same time, this process converts NAD to NADH, which has a distinct absorption band at 340 nm. By continuously measuring the solution absorption, the kinetics of the first reaction can be indirectly monitored. […] This will result in a much slower generation of NADH. […] This proves that Gluc-Bio can bind to hexokinase and could be a substrate. […] In this experiment, the amount of ATP was controlled to be much less than that of glucose. If Gluc-Bio is simply an inhibitor and cannot be converted by hexokinase, it will not consume the ATP pool in the solution, and the final amount of NADH will be the same as that of glucose alone.

Data set [9] has as its system GBM39 single cells. Description: Validation of the Gluc-Bio uptake. The format is cell-based, human. The settings on record: 20 ug/mL Gluc-Bio, 20 min; 17.5 mM vs 25 mM glucose; 37° C. vs 4° C. As to the method:
FIG. 4C is a graph of cell uptake experiments using the immunofluorescence assay depicted in FIG. 2B to assay Gluc-Bio uptake in GBM39 primary neurosphere cells at 37° C. in the presence of […] glucose and 25 mM glucose, and at 4° C. at 17.5 mM glucose as indicated, showing that Gluc-Bio competes with glucose, according to embodiments of the present invention.
GBM39 single cells were suspended in normal media (17.5 mM glucose) or high glucose media (25 mM glucose) at a concentration of 0.5 M cells/mL. These cells were incubated with 20 ug/mL of Gluc-Bio at 37° C. or 4° C. for 20 min. After incubation, cells were washed with cold PBS for three times and then lysed for quantifying the Gluc-Bio.

On to `C#Cc1cccc(Nc2ncnc3cc(OCCOC)c(OCCOC)cc23)c1` [erlotinib], for which, in [1], the “cell growth (number of cells as a function of days)” value was “not inhibited; also recorded: does not inhibit”. Moreover, in data set [2], the “activities of HK2” value is recorded as “sharply reduced”, the “level of GSH” value is given as “sharply reduced” and the “level of glucose uptake” value is listed as “sharply reduced”. In addition, the glutamine uptake result in data set [3] (1 uM erlotinib) is listed as “increased”. In [3] (1 μM erlotinib), the glucose uptake result was “repressed”; the “levels of PFK and PKM2” value was “increased”. Further, in data set [3] (higher dose erlotinib (10 μM)), the glucose uptake entry is listed as “decreased”, the glutamine uptake result was “decreased” and the metabolic enzymes entry is “repressed”. For the same molecule, in data set [3] (higher drug concentration (10 μM)), the “cellular energy production (EPI)” value is “inhibits cellular energy production”.

As for `NC(CCCNC(=O)C12CC3CC(CC(C3)C1)C2)C(=O)O` (stereo not drawn) [Compound 3, 5-(adamantane-1-carboxamido)-2-aminopentanoic acid], the “cell uptake of Compound 3” value in data set [4] (siRNA knock-down of SLC1A5) is given as “inhibition of cell uptake”. In addition, the “Compound 3 fluorescence (uptake)” value in data set [4] (sodium free conditions) was “inhibition of Compound 3 fluorescence (uptake)”. Also, the “cell growth / cell toxicity” value in data set [5] is on record as “does not inhibit cell growth”. The “competition with cellular glutamine (absorbance)” value in data set [6] is listed as “competes with the cellular glutamine”. Besides, the “cell uptake of glutamine analog: dependence on temperature and on glutamine” value in data set [7] is “temperature-dependency and glutamine-dependency”.

For the molecule `O=C(CCCC[C@@H]1SC[C@@H]2NC(=O)N[C@@H]21)N[C@H]1C(O)O[C@H](CO)[C@@H](O)[C@@H]1O` (stereo partly drawn) [Gluc-Bio], the “generation of NADH in the presence of Gluc-Bio” value in data set [8] (0.5 mM glucose and 0.5 mM Gluc-Bio vs 0.5 mM glucose alone) is “much slower than that of glucose alone”. For the same molecule, in data set [8] (ATP much less than glucose, addition of Gluc-Bio), the “final amount of NADH generated” value is “less NADH was generated”. Also, the substrate for hexokinase entry in [8] (conclusion from both experiments) is listed as “is a substrate for hexokinase”. Also, the “uptake of Gluc-Bio” value in [9] is “inhibited by increasing the extracellular glucose concentration and by decreasing the temperature”.

`N[C@@H](CC(=O)NC12CC3CC(CC(C3)C1)C2)C(=O)O` [Compound 8, N4-(adamantan-1-yl)asparagine]: the “cell uptake of glutamine analog: dependence on temperature and on glutamine” value in [7] was “temperature-dependency and glutamine-dependency”.

For the origin of these results see patent US11353448B2, “Methods and compositions for quantifying metabolites and proteins from single cells” (CALIFORNIA INSTITUTE OF TECHNOLOGY, priority 2015, dated 2022).
